Measured values taken from article PMC6364417, “Kinase inhibitor library screening identifies synergistic drug combinations effective in sensitive and resistant melanoma cells” (Journal of Experimental & Clinical Cancer Research : CR, 2019).

How the values were obtained:
Experiment in all cases: Kinase inhibitor library screening, PrestoBlue cell viability, 1 or 10 μM, 72 h
501Mel cells (parental) = conditions: 72 h
Method in brief: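 Cells are treated with each inhibitor at 1 or 10 μM, incubated 72 h, then PrestoBlue reagent is added and the plate is read. Data are normalised to untreated cells.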

[1] = test system: 501Mel-GP cells (Dabrafenib-resistant); conditions: 72 h
[2] = test system: 501Mel-XP cells (Vemurafenib-resistant); conditions: 72 h
A375 cells (parental) = test system: A375 cells (parental)
[3] = test system: A375-GP cells (Dabrafenib-resistant)
[4] = test system: A375-XP cells (Vemurafenib-resistant)
IGR37 cells (parental) = test system: IGR37 cells (parental)
[5] = test system: IGR37-GP cells (Dabrafenib-resistant)
[6] = test system: IGR37-XP cells (Vemurafenib-resistant)
[7] = IGR37 Parental, 10μΜ, 72 h, in %

## N#CCNC(=O)c1ccc(-c2ccnc(Nc3ccc(N4CCOCC4)cc3)n2)cc1 [Cyt387]
501Mel cells (parental); Homo sapiens, read-out: cell viability, 501Mel Parental, 1μΜ
  viability at 1 µM: 101%
501Mel cells (parental); Homo sapiens, read-out: cell viability, 501Mel Parental, 10μΜ
  viability at 10 µM: 60.8%
[1]; Homo sapiens, read-out: cell viability, 501Mel GP, 1μΜ
  viability at 1 µM: 105%
[1]; Homo sapiens, read-out: cell viability, 501Mel GP, 10μΜ
  viability at 10 µM: 50.6%
[2]; Homo sapiens, read-out: cell viability, 501Mel XP, 1μΜ
  viability at 1 µM: 115%
[2]; Homo sapiens, read-out: cell viability, 501Mel XP, 10μΜ
  viability at 10 µM: 35.8%
A375 cells (parental); Homo sapiens, A-375, 72 h, read-out: cell viability, A375 Parental, 1μΜ
  viability at 1 µM: 99.6%
A375 cells (parental); Homo sapiens, A-375, 72 h, read-out: cell viability, A375 Parental, 10μΜ
  viability at 10 µM: 48.4%
[3]; Homo sapiens, A-375, 72 h, read-out: cell viability, A375 GP, 1μΜ
  viability at 1 µM: 94.4%
[3]; Homo sapiens, A-375, 72 h, read-out: cell viability, A375 GP, 10μΜ
  viability at 10 µM: 43.9%
[4]; Homo sapiens, A-375, 72 h, read-out: cell viability, A375 XP, 1μΜ
  viability at 1 µM: 95.8%
[4]; Homo sapiens, A-375, 72 h, read-out: cell viability, A375 XP, 10μΜ
  viability at 10 µM: 64.7%
IGR37 cells (parental); Homo sapiens, IGR-37, 72 h, read-out: cell viability, IGR37 Parental, 1μΜ
  viability at 1 µM: 103%
IGR37 cells (parental); Homo sapiens, IGR-37, 72 h, read-out: cell viability, IGR37 Parental, 10μΜ
  viability at 10 µM: 86.1%
[5]; Homo sapiens, IGR-37, 72 h, read-out: cell viability, IGR37 GP, 1μΜ
  viability at 1 µM: 94.2%
[5]; Homo sapiens, IGR-37, 72 h, read-out: cell viability, IGR37 GP, 10μΜ
  viability at 10 µM: 25.5%
[6]; Homo sapiens, IGR-37, 72 h, read-out: cell viability, IGR37 XP, 1μΜ
  viability at 1 µM: 106%
[6]; Homo sapiens, IGR-37, 72 h, read-out: cell viability, IGR37 XP, 10μΜ
  viability at 10 µM: 11.7%

## CNC(=O)c1cc(Oc2ccc(NC(=O)Nc3cc(C(C)(C)C)nn3-c3ccc4ncccc4c3)c(F)c2)ccn1 [DCC-2036 (Rebastinib)]
501Mel cells (parental); 501Mel Parental, 1μΜ
  cell viability (kinase inhibitor library screening): 81.5%
501Mel cells (parental); 501Mel Parental, 10μΜ
  cell viability (kinase inhibitor library screening): 2.8%
[1]; 501Mel GP, 1μΜ
  cell viability (kinase inhibitor library screening): 100.3%
[1]; 501Mel GP, 10μΜ
  cell viability (kinase inhibitor library screening): 2.0%
[2]; 501Mel XP, 1μΜ
  cell viability (kinase inhibitor library screening): 102.9%
[2]; 501Mel XP, 10μΜ
  cell viability (kinase inhibitor library screening): 0.261%
A375 cells (parental); A375 Parental, 10μΜ, 72 h
  cell viability (kinase inhibitor library screening): 1.8%
A375 cells (parental); A375 Parental, 1μΜ, 72 h
  cell viability (kinase inhibitor library screening): 55.4%
[3]; A375 GP, 1μΜ, 72 h
  cell viability (kinase inhibitor library screening): 96.7%
[3]; A375 GP, 10μΜ, 72 h
  cell viability (kinase inhibitor library screening): 3.6%
[4]; A375 XP, 1μΜ, 72 h
  cell viability (kinase inhibitor library screening): 76.3%
[4]; A375 XP, 10μΜ, 72 h
  cell viability (kinase inhibitor library screening): 2.5%
IGR37 cells (parental); IGR37 Parental, 1μΜ, 72 h
  cell viability (kinase inhibitor library screening): 67.0%
IGR37 cells (parental); IGR37 Parental, 10μΜ, 72 h
  cell viability (kinase inhibitor library screening): 20.7%
[5]; IGR37 GP, 10μΜ, 72 h
  cell viability (kinase inhibitor library screening): 8.3%
[6]; IGR37 XP, 1μΜ, 72 h
  cell viability (kinase inhibitor library screening): 107.3%
[6]; IGR37 XP, 10μΜ, 72 h
  cell viability (kinase inhibitor library screening): 2.4%

## CC(C)(C)c1nc(-c2cccc(NS(=O)(=O)c3c(F)cccc3F)c2F)c(-c2ccnc(N)n2)s1 [Dabrafenib (GSK2118436)]
501Mel cells (parental); 501Mel Parental, 1μΜ, in %
  Cell viability in kinase inhibitor library screening, 501Mel Parental, 1μΜ: 51.2
501Mel cells (parental); 501Mel Parental, 10μΜ, in %
  Cell viability in kinase inhibitor library screening, 501Mel Parental, 10μΜ: 72.8
[1]; 501Mel GP, 1μΜ, in %
  Cell viability in kinase inhibitor library screening, 501Mel GP, 1μΜ: 96.2
[1]; 501Mel GP, 10μΜ, in %
  Cell viability in kinase inhibitor library screening, 501Mel GP, 10μΜ: 92.9
[2]; 501Mel XP, 1μΜ, in %
  Cell viability in kinase inhibitor library screening, 501Mel XP, 1μΜ: 79.2
[2]; 501Mel XP, 10μΜ, in %
  Cell viability in kinase inhibitor library screening, 501Mel XP, 10μΜ: 97.5
A375 cells (parental); A375 Parental, 10μΜ, 72 h
  Cell viability in kinase inhibitor library screening, A375 Parental, 10μΜ: 26.9
A375 cells (parental); A375 Parental, 1μΜ, 72 h
  Cell viability in kinase inhibitor library screening, A375 Parental, 1μΜ: 17.6
[3]; A375 GP, 1μΜ, 72 h
  Cell viability in kinase inhibitor library screening, A375 GP, 1μΜ: 65.8
[3]; A375 GP, 10μΜ, 72 h
  Cell viability in kinase inhibitor library screening, A375 GP, 10μΜ: 52.9
[4]; A375 XP, 1μΜ, 72 h
  Cell viability in kinase inhibitor library screening, A375 XP, 1μΜ: 73.0
[4]; A375 XP, 10μΜ, 72 h
  Cell viability in kinase inhibitor library screening, A375 XP, 10μΜ: 48.7
IGR37 cells (parental); IGR37 Parental, 1μΜ, 72 h, in %
  Cell viability in kinase inhibitor library screening, IGR37 Parental, 1μΜ: 34.2
IGR37 cells (parental); [7]
  Cell viability in kinase inhibitor library screening, IGR37 Parental, 10μΜ: 44.5
[5]; IGR37 GP, 10μΜ, 72 h
  Cell viability in kinase inhibitor library screening, IGR37 GP, 10μΜ: 97.8%
[5]; IGR37 GP, 1μΜ, 72 h, in %
  Cell viability in kinase inhibitor library screening, IGR37 GP, 1μΜ: 94.6
[6]; IGR37 XP, 10μΜ, 72 h
  Cell viability in kinase inhibitor library screening, IGR37 XP, 10μΜ: 78.9%
[6]; IGR37 XP, 1μΜ, 72 h, in %
  Cell viability in kinase inhibitor library screening, IGR37 XP, 1μΜ: 93.2

## COc1cc2ncnc(Nc3ccc(F)c(Cl)c3)c2cc1NC(=O)/C=C/CN1CCCCC1 [Dacomitinib (PF299804,PF-00299804)]
501Mel cells (parental); 501Mel Parental, 10μΜ, in %
  cell viability, 501Mel Parental, 10μΜ: 0.5
[1]; 501Mel GP, 1μΜ, in %
  cell viability, 501Mel GP, 1μΜ: 106.7
[1]; 501Mel GP, 10μΜ, in %
  cell viability, 501Mel GP, 10μΜ: -0.4
[2]; 501Mel XP, 10μΜ, in %
  cell viability, 501Mel XP, 10μΜ: -0.2
A375 cells (parental); A375 Parental, 1μΜ, 72 h, in %
  cell viability, A375 Parental, 1μΜ: 94.4
A375 cells (parental); A375 Parental, 10μΜ, 72 h, in %
  cell viability, A375 Parental, 10μΜ: 3.4
[3]; A375 GP, 1μΜ, 72 h, in %
  cell viability, A375 GP, 1μΜ: 97.2
[3]; A375 GP, 10μΜ, 72 h, in %
  cell viability, A375 GP, 10μΜ: 1.9
[4]; A375 XP, 1μΜ, 72 h, in %
  cell viability, A375 XP, 1μΜ: 96.8
[4]; A375 XP, 10μΜ, 72 h, in %
  cell viability, A375 XP, 10μΜ: 1.1
IGR37 cells (parental); [7]
  cell viability, IGR37 Parental, 10μΜ: 1.1
[5]; IGR37 GP, 10μΜ, 72 h
  cell viability, IGR37 GP, 10μΜ: 2.6%
[6]; IGR37 XP, 10μΜ, 72 h
  cell viability, IGR37 XP, 10μΜ: 1.3%
[6]; IGR37 XP, 1μΜ, 72 h, in %
  cell viability, IGR37 XP, 1μΜ: 80.1
